In patent publication US20100099614A1, “Antimicrobial Peptides and Methods of Use” (priority 2008, published 2010):
Where two headings read alike, the source gives them in different places.

Tested on: multiple drug resistant M. tuberculosis strain vertulo
Conditions: for Anti-tuberculosis activity to multi-drug resistant strain (vertulo) Fold (compared to D4): relative to D4

| Compound | Anti-tuberculosis activity to multi-drug resistant strain (vertulo) Fold (compared to D4) | Anti-tuberculosis activity to multi-drug resistant strain (vertulo) MIC | Anti-tuberculosis activity to multi-drug resistant strain (vertulo) MIC (multiple drug resistant strain vertulo) |
| --- | --- | --- | --- |
| CC[C@@H](C)[C@@H](NC(=O)[C@@H](CC(C)C)NC(=O)[C@@H](CCCCN)NC(=O)[C@@H](CC(C)C)NC(=O)[C@@H](CC(C)C)NC(=O)[C@H](NC(=O)[C@@H](Cc1c[nH]cn1)NC(=O)[C@@H](CC(C)C)NC(=O)[C@@H](CCCCN)NC(=O)[C@H](NC(=O)[C@@H](CCCCN)NC(=O)[C@@H](CCCCN)NC(=O)[C@@H](CC(C)C)NC(=O)[C@@H](CO)NC(=O)[C@@H](CCCCN)NC(=O)[C@@H](Cc1ccccc1)NC(=O)[C@H](NC(=O)[C@@H](CCCCN)NC(=O)[C@@H](CC(C)C)NC(=O)[C@@H](Cc1ccccc1)NC(=O)[C@@H](CO)NC(=O)[C@@H](CCCCN)NC(=O)[C@@H](Cc1c[nH]c2ccccc12)NC(=O)[C@@H](CCCCN)NC(C)=O)[C@H](C)O)[C@H](C)O)[C@H](C)O)C(=O)N[C@H](CO)C(=O)N[C@H](CO)C(N)=O [D5] | >10.3 fold |  |  |
| CC[C@@H](C)[C@@H](NC(=O)[C@@H](C)NC(=O)[C@@H](CCCCN)NC(=O)[C@@H](CC(C)C)NC(=O)[C@@H](C)NC(=O)[C@H](NC(=O)[C@@H](Cc1c[nH]cn1)NC(=O)[C@@H](CC(C)C)NC(=O)[C@H](NC(=O)[C@H](NC(=O)[C@@H](CCCCN)NC(=O)[C@@H](CCCCN)NC(=O)[C@@H](C)NC(=O)[C@@H](CO)NC(=O)[C@@H](CCCCN)NC(=O)[C@@H](Cc1ccccc1)NC(=O)[C@H](NC(=O)[C@@H](CCCCN)NC(=O)[C@@H](CC(C)C)NC(=O)[C@@H](Cc1ccccc1)NC(=O)[C@@H](CO)NC(=O)[C@@H](CCCCN)NC(=O)[C@@H](Cc1c[nH]c2ccccc12)NC(=O)[C@@H](CCCCN)NC(C)=O)[C@H](C)O)[C@H](C)O)C(C)C)[C@H](C)O)C(=O)N[C@H](CO)C(=O)N[C@H](CO)C(N)=O [D1] | >8.4 fold | 57 µg/mL | 19.1 µM |
